One test addresses 4D11 IgG. Description: SPR competition binding assay, mAb 4D11. On the set-up: species or system mouse. To be noted: read-out: Kd against 4D11 IgG. As for the experimental part:
(§1) Affinities for peptide epitopes and dimer peptides to 4D11 and 9H4 IgG were measured by surface plasmon resonance (SPR) (Biacore T200, GE Healthcare, Parramatta, Australia) using a competition assay method developed previously. First, 3D7 MSP2 was immobilised on a CM5 chip. To determine binding, eight three-fold dilutions of peptide, from 10 µM stock were added with 50 nM 4D11/9H4 IgG to compete with the immobilised antigen. A standard curve was established by flowing eight two-fold dilutions of 4D11 or 9H4 IgG from a 100 nM stock solution.
Following the MD simulations, each peptide was synthesised by standard Fmoc synthesis. Orthogonal protection of cysteines was used to ensure that the desired disulfide bond was formed, leaving a single free cysteine for conjugation to an appropriate carrier for immunisation. […] Consequently, disulfide bond formation and cyclisation coupling were performed in solution. To determine if the additions incorporated into the dimer sequence hindered binding to 4D11, SPR was used to measure their binding affinity to the mAb (Table 2). […] For immunisations, the commonly used carrier protein, keyhole limpet hemocyanin (KLH) was chosen. As conjugation to KLH required a free thiol, an additional cysteine residue was included in all of the peptides (Figure 2).

A further test has as its target 9H4 IgG. Description: SPR competition binding assay, mAb 9H4. The following applies: SPR competition assay (Biacore T200); 3D7 MSP2 immobilised on CM5 chip; eight three-fold dilutions of peptide from 10 µM with 50 nM 9H4 IgG; alanine scan of 16-residue MSP2_207–222; read-out: Kd against 9H4 IgG. On the set-up: species or system mouse. How it is done: as §1
In our previous work, the minimal epitope and key residues involved in 4D11 binding were defined as the 8-residue peptide 3D7-MSP2_215–222, with Lys216, Glu217 and Asn218 crucial for binding. To characterise the epitope of 9H4 and compare it with that of 4D11, the same alanine-scan peptides were used to probe 9H4 binding (Figure 1A,B). Affinities for 9H4 binding were measured by SPR, using a competition binding assay described previously.

The mark [1] stands for this setting: SPR competition assay (Biacore T200), 3D7 MSP2 immobilised on CM5 chip, eight three-fold dilutions of peptide from 10 µM with 50 nM 4D11 IgG, alanine scan of 16-residue MSP2_207–222.
The mark [2] stands for this setting: SPR competition binding assay, peptides for KLH conjugation (Table 2), 3D7 MSP2 on CM5 chip, 50 nM 4D11 IgG.

The text below walks through data of publication PMC8402609, “Guiding the Immune Response to a Conserved Epitope in MSP2, an Intrinsically Disordered Malaria Vaccine Candidate” (Vaccines, 2021).

The structures appear in SMILES notation. Where two headings read alike, the source gives them in different places. Where a SMILES comes first, the peptide text is derived from it. Bridges are numbered along the chain shown (N, C = ends).

Broadly, the Kd is the equilibrium constant for the complex coming apart. Consider `CC(=O)N[C@@H](CO)C(=O)N[C@@H](CCC(N)=O)C(=O)N[C@@H](CCCCN)C(=O)N[C@@H](CCC(=O)O)C(=O)N[C@H]1CSSC[C@@H](C(=O)NCC(=O)N[C@@H](C)C(=O)N[C@@H](C)C(N)=O)NC(=O)[C@H](CC(N)=O)NC(=O)[C@H](CCC(=O)O)NC(=O)[C@H](CCCCN)NC(=O)[C@H](CC(N)=O)NC(=O)CNC(=O)[C@H](CC(=O)O)NC(=O)[C@H]([C@@H](C)O)NC1=O` [3D7-MSP2_207–222 (WT)] (Ac-SQKECTDGNKENCGAA-NH2; disulfide 5-13), for which the Kd at 4D11 IgG (setting [1]) came to 900 nM; at 9H4 IgG, 1500 nM.

In the case of `C[C@@H]1NC(=O)CNC(=O)[C@@H]2CSSC[C@H](NC(=O)[C@H](CC(N)=O)NC(=O)[C@H](CCC(=O)O)NC(=O)[C@H](CCCCN)NC(=O)[C@H](CC(N)=O)NC(=O)CNC(=O)CNC(=O)[C@H](C)NC1=O)C(=O)NCC(=O)N[C@@H](C)C(=O)N[C@@H](C)C(=O)N[C@@H](CS)C(=O)NCC(=O)N[C@@H](CC(N)=O)C(=O)N[C@@H](CCCCN)C(=O)N[C@@H](CCC(=O)O)C(=O)N[C@@H](CC(N)=O)C(=O)N2` [Peptide C2] (cyclo(AACGNKENCGAAGGNKENCG); disulfide 9-19), the Kd at 4D11 IgG (setting [2]) worked out at 680 nM.

Regarding `C[C@@H]1NC(=O)CNC(=O)[C@@H]2CSSC[C@H](NC(=O)[C@H](CC(N)=O)NC(=O)[C@H](CCC(=O)O)NC(=O)[C@H](CCCCN)NC(=O)[C@H](CC(N)=O)NC(=O)CNC(=O)[C@H](CS)NC(=O)CNC(=O)[C@H](C)NC1=O)C(=O)NCC(=O)N[C@@H](C)C(=O)N[C@@H](C)C(=O)NCC(=O)NCC(=O)NCC(=O)N[C@@H](CC(N)=O)C(=O)N[C@@H](CCCCN)C(=O)N[C@@H](CCC(=O)O)C(=O)N[C@@H](CC(N)=O)C(=O)N2` [Peptide C3] (cyclo(AAGCGNKENCGAAGGGNKENCG); disulfide 10-21), the Kd on 4D11 IgG (setting [2]) worked out at 1040 nM.

For `CC(=O)N[C@@H](CO)C(=O)N[C@@H](CCC(N)=O)C(=O)N[C@@H](CCCCN)C(=O)N[C@@H](CCC(=O)O)C(=O)N[C@H]1CSSC[C@@H](C(=O)NCC(=O)N[C@@H](C)C(=O)N[C@@H](C)C(N)=O)NC(=O)[C@H](CC(N)=O)NC(=O)[C@H](CCC(=O)O)NC(=O)[C@H](CCCCN)NC(=O)[C@H](CC(N)=O)NC(=O)CNC(=O)[C@H](C)NC(=O)[C@H]([C@@H](C)O)NC1=O` [Peptide D213A] (Ac-SQKECTAGNKENCGAA-NH2; disulfide 5-13), the Kd on 4D11 IgG (setting [1]) came out at 500 nM.

Take `CC(=O)N[C@@H](CO)C(=O)N[C@@H](CCC(N)=O)C(=O)N[C@@H](CCCCN)C(=O)N[C@@H](C)C(=O)N[C@H]1CSSC[C@@H](C(=O)NCC(=O)N[C@@H](C)C(=O)N[C@@H](C)C(N)=O)NC(=O)[C@H](CC(N)=O)NC(=O)[C@H](CCC(=O)O)NC(=O)[C@H](CCCCN)NC(=O)[C@H](CC(N)=O)NC(=O)CNC(=O)[C@H](CC(=O)O)NC(=O)[C@H]([C@@H](C)O)NC1=O` [Peptide E210A] (Ac-SQKACTDGNKENCGAA-NH2; disulfide 5-13): the results for the Kd on 4D11 IgG (setting [1]) and on 9H4 IgG were 500 nM and 1400 nM, respectively.

On to `CC(=O)N[C@@H](CO)C(=O)N[C@@H](CCC(N)=O)C(=O)N[C@@H](CCCCN)C(=O)N[C@@H](CCC(=O)O)C(=O)N[C@H]1CSSC[C@@H](C(=O)NCC(=O)N[C@@H](C)C(=O)N[C@@H](C)C(N)=O)NC(=O)[C@H](CC(N)=O)NC(=O)[C@H](C)NC(=O)[C@H](CCCCN)NC(=O)[C@H](CC(N)=O)NC(=O)CNC(=O)[C@H](CC(=O)O)NC(=O)[C@H]([C@@H](C)O)NC1=O` [Peptide E217A] (Ac-SQKECTDGNKANCGAA-NH2; disulfide 5-13), for which the Kd at 4D11 IgG (setting [1]) was 219000 nM; on 9H4 IgG it was 90 nM.

For `CC(=O)N[C@@H](CO)C(=O)N[C@@H](CCC(N)=O)C(=O)N[C@@H](CCCCN)C(=O)N[C@@H](CCC(=O)O)C(=O)N[C@H]1CSSC[C@@H](C(=O)NCC(=O)N[C@@H](C)C(=O)N[C@@H](C)C(N)=O)NC(=O)[C@H](CC(N)=O)NC(=O)[C@H](CCC(=O)O)NC(=O)[C@H](CCCCN)NC(=O)[C@H](CC(N)=O)NC(=O)[C@H](C)NC(=O)[C@H](CC(=O)O)NC(=O)[C@H]([C@@H](C)O)NC1=O` [Peptide G214A] (Ac-SQKECTDANKENCGAA-NH2; disulfide 5-13), the values for the Kd at 4D11 IgG (setting [1]) and at 9H4 IgG were 400 nM and 70 nM, respectively.

In the case of `CC(=O)N[C@@H](CO)C(=O)N[C@@H](CCC(N)=O)C(=O)N[C@@H](CCCCN)C(=O)N[C@@H](CCC(=O)O)C(=O)N[C@H]1CSSC[C@@H](C(=O)N[C@@H](C)C(=O)N[C@@H](C)C(=O)N[C@@H](C)C(N)=O)NC(=O)[C@H](CC(N)=O)NC(=O)[C@H](CCC(=O)O)NC(=O)[C@H](CCCCN)NC(=O)[C@H](CC(N)=O)NC(=O)CNC(=O)[C@H](CC(=O)O)NC(=O)[C@H]([C@@H](C)O)NC1=O` [Peptide G220A] (Ac-SQKECTDGNKENCAAA-NH2; disulfide 5-13), the Kd worked out at 42200 nM at 4D11 IgG (setting [1]) and 2900 nM on 9H4 IgG.

Turning to `CC(=O)N[C@@H](CO)C(=O)N[C@@H](CCC(N)=O)C(=O)N[C@@H](CCCCN)C(=O)N[C@@H](CCC(=O)O)C(=O)N[C@H]1CSSC[C@@H](C(=O)NCC(=O)N[C@@H](C)C(=O)N[C@@H](C)C(N)=O)NC(=O)[C@H](CC(N)=O)NC(=O)[C@H](CCC(=O)O)NC(=O)[C@H](C)NC(=O)[C@H](CC(N)=O)NC(=O)CNC(=O)[C@H](CC(=O)O)NC(=O)[C@H]([C@@H](C)O)NC1=O` [Peptide K216A] (Ac-SQKECTDGNAENCGAA-NH2; disulfide 5-13), the dissociation constant Kd at 4D11 IgG (setting [1]) is 21000 nM; at 9H4 IgG it was 90 nM.

`CC(=O)N[C@@H](CC(N)=O)C(=O)N[C@@H](CCCCN)C(=O)N[C@@H](CCC(=O)O)C(=O)N[C@@H](CC(N)=O)C(=O)N[C@H]1CSSC[C@@H](C(=O)NCC(=O)N[C@@H](C)C(=O)N[C@@H](C)C(=O)N[C@@H](CS)C(N)=O)NC(=O)[C@H](CC(N)=O)NC(=O)[C@H](CCC(=O)O)NC(=O)[C@H](CCCCN)NC(=O)[C@H](CC(N)=O)NC(=O)CNC(=O)CNC(=O)[C@H](C)NC(=O)[C@H](C)NC(=O)CNC1=O` [Peptide L2] (Ac-NKENCGAAGGNKENCGAAC-NH2; disulfide 5-15): the Kd on 4D11 IgG (setting [2]) is 670 nM.

With `CC(=O)N[C@@H](CC(N)=O)C(=O)N[C@@H](CCCCN)C(=O)N[C@@H](CCC(=O)O)C(=O)N[C@@H](CC(N)=O)C(=O)N[C@H]1CSSC[C@@H](C(=O)NCC(=O)N[C@@H](C)C(=O)N[C@@H](C)C(=O)N[C@@H](CS)C(N)=O)NC(=O)[C@H](CC(N)=O)NC(=O)[C@H](CCC(=O)O)NC(=O)[C@H](CCCCN)NC(=O)[C@H](CC(N)=O)NC(=O)CNC(=O)CNC(=O)CNC(=O)[C@H](C)NC(=O)[C@H](C)NC(=O)CNC1=O` [Peptide L3] (Ac-NKENCGAAGGGNKENCGAAC-NH2; disulfide 5-16), at 4D11 IgG (setting [2]), the Kd was found to be 580 nM.

Consider `CC(=O)N[C@@H](CO)C(=O)N[C@@H](CCC(N)=O)C(=O)N[C@@H](CCCCN)C(=O)N[C@@H](CCC(=O)O)C(=O)N[C@H]1CSSC[C@@H](C(=O)NCC(=O)N[C@@H](C)C(=O)N[C@@H](C)C(N)=O)NC(=O)[C@H](CC(N)=O)NC(=O)[C@H](CCC(=O)O)NC(=O)[C@H](CCCCN)NC(=O)[C@H](C)NC(=O)CNC(=O)[C@H](CC(=O)O)NC(=O)[C@H]([C@@H](C)O)NC1=O` [Peptide N215A] (Ac-SQKECTDGAKENCGAA-NH2; disulfide 5-13), for which the Kd on 4D11 IgG (setting [1]) amounted to 500 nM; at 9H4 IgG, 100 nM.
